Substitutions are numbered along the chain they refer to. Names and notes keep the numbering of the source. “Also recorded” adds a separate entry of the source. Like-named read-outs stand apart in the source and are kept apart here.
Experiments:
L-type HVDCC = conditions: cited from earlier work
[1] = cited from earlier work
JME seizures = conditions: JME patients, cited from earlier work
[2] = test system: EFHC1-transfected hippocampal primary culture neurons; test: Cell death analyses with VDCCs inhibitors; format: cell-based, mouse
Method: Cell death analyses with VDCCs inhibitors. Dissociated hippocampal primary culture neurons from embryonic day 16 mice were seeded in 24 well plates containing poly-L-lysine coated coverslips (5×10^4 cells/well). Neurons were transfected with pEGFP-EFHC1 on day 6 in vitro with antagonists and fixed 48 hours post transfection. Calcium channel inhibitors, ω-Agatoxin IVA (PEPTIDE […], INC.) for P-type (Cav2.1), ω-Conotoxin GVIA (PEPTIDE […], INC.) for N-type (Cav2.2), SNX-482 (PEPTIDE […], INC.) for R-type (Cav2.3), flunarizine (Nacalai Tesque) for T-type and nifedipine (SIGMA) for L-type VDCC, were added directly to neuronal culture 3 hrs post transfection.

N type HVDCC = N type HVDCC (Homo sapiens, UniProt Q00975); conditions: cited from earlier work
[3] = test system: high voltage activated calcium currents (HVDCC); conditions: cited from earlier work
T type VDCC = conditions: cited from earlier work
P type HVDCC = P type HVDCC (Homo sapiens, UniProt O00555); conditions: cited from earlier work
PQ type VDCC (Cav2.1) = biological target: T1, PQ type VDCC (Cav2.1) (Oryctolagus cuniculus, UniProt P27884); test: Patch-clamp analyses of HEK cell line with P/Q type VDCCs and wild type EFHC1 or mutant constructs; format: cell-based; conditions: for Activation V0.5 (mV): half-maximal voltage of activation; for Activation V0.5 (mV) / Inactivation V0.5 (mV) / Activation k (mV) / Inactivation K (mV): mean ± SEM; for Inactivation V0.5 (mV): half-maximal voltage of inactivation; for Activation k (mV) / Inactivation K (mV): slope factor
T1 construct: expressed in transfected cells; host or cells: HEK cell line

[4] = test system: mouse hippocampal primary culture neurons; conditions: 24, 36 and 48 hours after transfection; mutants compared to wild-type EFHC1
Method: Mouse hippocampal neurons primary culture. Hippocampal neurons were isolated from embryonic day 16 mice and plated at 1-2×10^5 cells per well in 24 well plate containing glass coverslips coated with poly-1-lysine and grown in serum-free NEUROBASAL™ media supplemented with B27, 0.5 mM L-glutamine (Invitrogen).
Transfection and immunostaining of mouse hippocampal neurons. […] Cultures were fixed with 4% paraformaldehyde in PBS 16 and 48 hours after transfection, permeabilized with 0.3% Triton X-100, blocked in 3% normal goat serum in PBS, and treated with mouse monoclonal anti-MAP-2 antibody (1:500; Sigma) and Alexa fluor 594 goat anti-mouse IgG antibody (1:1000; Molecular Probes).
TUNEL assay. […] Forty-eight hours after transfection, neuronal apoptosis was detected using DeadEndTM Fluorometric TUNEL System (Promega). Nuclei were visualized with Hoescht 33342 (Molecular Probes). These cells were also stained with anti-Myc antibody (1:200; Cell Signaling) and Alexa fluor 594 goat anti-rabbit IgG antibody (1:1000). All experiments were carried out in duplicate wells and at least repeated three times. Neuron cells were observed on a confocal microscope (OLYMPUS FLUOVIEW) following 48 hours post transfection.
Cell death analyses with EFHC1 mutants. […] Surviving cell numbers were scored by counting GFP fluorescent-positive cells that attached to dishes. At each counting, detached cells (dead cells) were carefully removed by changing culture medium. Morphologies of cells (cell shape, length and number of neurites, shrinkage, etc.) were not considered for the counting. Surviving cell numbers were scored at 24, 36, and 48 hours after transfection. Analyses were repeated twice by using two independently prepared expression construct DNAs. In total, neurons in seven wells of 24 well plates were counted for each transfection and time point. Experiments were performed in a blinded fashion.

R-type VDCC (Cav2.3) = biological target: T2, R-type VDCC (Cav2.3) (Oryctolagus cuniculus, UniProt Q02343); test: Patch-clamp analyses of BHK cells stably expressing Cav2.3 transfected with EFHC1 constructs; format: cell-based; conditions: whole cell patch-clamp, 24-48 hr after transfection
T2 construct: expressed in transfected cells; host or cells: BHK (BII-104-2) cells
Method: Electrophysiological analysis. A baby hamster kidney (BHK) cell line BHK (BII-104-2) stably transfected with the ociE (BII), α2/δ and β1a subunits, were cultured in DMEM medium containing 10% fetal bovine serum (FBS), 30 U/mL penicillin and 30 μg/mL streptomycin. To transiently express wild type or mutant EFHC1, BHK (BII-104-2) cells were transfected with the pEGFP-C2 plasmids (Clonetech) containing EGFP fused with cDNA for EFHC1 or its mutants using SuperFect Transfection Reagent (QIAGEN). For control experiments, EGFP was transiently expressed by transfecting BHK (BII-104-2) with the same amount of pEGFP without the EFHC1 inserts. Cells were trypsinized, diluted with the DMEM medium, and plated onto glass coverslips 18 hrs after transfection. Ca^2+ currents were recorded 24-48 hr after transfection from GFP-positive cells. Currents from BHK (BII-104-2) cells were recorded at room temperature (22-25° C.) using patch-clamp techniques of whole cell mode with an EPC-9 amplifier (HEKA, Germany). Patch pipettes were made from borosilicate glass capillaries (1.5 mm outer diameter and 0.87 mm inner diameter; Hilgenberg) by using a model P-97 Flaming-Brown micropipette puller (Sutter Instrument Co., CA). Pipette resistance ranged from 2 to 3 MΩ when filled with the pipette solutions described below. The series resistance was electronically compensated to >70% and both the leakage and the remaining capacitance were subtracted by −P/6 method. Currents were sampled at 100 kHz in activation kinetics, otherwise sampled at 50 kHz and filtered at 10 kHz. Calcium currents were recorded in an external solution that contained (in mM): 3 CaCl2, 148 tetraethylammonium chloride (TEA-C1), 10 glucose, and 10 HEPES, pH adjusted to 7.4 with Tris-OH. The pipette solution contained (in mM): 85 Cs-aspartate, 40 CsCl, 4 MgCl2, 5 EGTA, 2 ATP2Na, 5 HEPES, and 8 creatine-phosphate, pH adjusted to 7.4 with CsOH. To determine voltage-dependence of activation, amplitude of tail currents at −50 mV after 5 ms test pulse (−40 to 90 mV) was normalized to the maximal tail current amplitude. […]

T1 sequence (P27884 whole entry): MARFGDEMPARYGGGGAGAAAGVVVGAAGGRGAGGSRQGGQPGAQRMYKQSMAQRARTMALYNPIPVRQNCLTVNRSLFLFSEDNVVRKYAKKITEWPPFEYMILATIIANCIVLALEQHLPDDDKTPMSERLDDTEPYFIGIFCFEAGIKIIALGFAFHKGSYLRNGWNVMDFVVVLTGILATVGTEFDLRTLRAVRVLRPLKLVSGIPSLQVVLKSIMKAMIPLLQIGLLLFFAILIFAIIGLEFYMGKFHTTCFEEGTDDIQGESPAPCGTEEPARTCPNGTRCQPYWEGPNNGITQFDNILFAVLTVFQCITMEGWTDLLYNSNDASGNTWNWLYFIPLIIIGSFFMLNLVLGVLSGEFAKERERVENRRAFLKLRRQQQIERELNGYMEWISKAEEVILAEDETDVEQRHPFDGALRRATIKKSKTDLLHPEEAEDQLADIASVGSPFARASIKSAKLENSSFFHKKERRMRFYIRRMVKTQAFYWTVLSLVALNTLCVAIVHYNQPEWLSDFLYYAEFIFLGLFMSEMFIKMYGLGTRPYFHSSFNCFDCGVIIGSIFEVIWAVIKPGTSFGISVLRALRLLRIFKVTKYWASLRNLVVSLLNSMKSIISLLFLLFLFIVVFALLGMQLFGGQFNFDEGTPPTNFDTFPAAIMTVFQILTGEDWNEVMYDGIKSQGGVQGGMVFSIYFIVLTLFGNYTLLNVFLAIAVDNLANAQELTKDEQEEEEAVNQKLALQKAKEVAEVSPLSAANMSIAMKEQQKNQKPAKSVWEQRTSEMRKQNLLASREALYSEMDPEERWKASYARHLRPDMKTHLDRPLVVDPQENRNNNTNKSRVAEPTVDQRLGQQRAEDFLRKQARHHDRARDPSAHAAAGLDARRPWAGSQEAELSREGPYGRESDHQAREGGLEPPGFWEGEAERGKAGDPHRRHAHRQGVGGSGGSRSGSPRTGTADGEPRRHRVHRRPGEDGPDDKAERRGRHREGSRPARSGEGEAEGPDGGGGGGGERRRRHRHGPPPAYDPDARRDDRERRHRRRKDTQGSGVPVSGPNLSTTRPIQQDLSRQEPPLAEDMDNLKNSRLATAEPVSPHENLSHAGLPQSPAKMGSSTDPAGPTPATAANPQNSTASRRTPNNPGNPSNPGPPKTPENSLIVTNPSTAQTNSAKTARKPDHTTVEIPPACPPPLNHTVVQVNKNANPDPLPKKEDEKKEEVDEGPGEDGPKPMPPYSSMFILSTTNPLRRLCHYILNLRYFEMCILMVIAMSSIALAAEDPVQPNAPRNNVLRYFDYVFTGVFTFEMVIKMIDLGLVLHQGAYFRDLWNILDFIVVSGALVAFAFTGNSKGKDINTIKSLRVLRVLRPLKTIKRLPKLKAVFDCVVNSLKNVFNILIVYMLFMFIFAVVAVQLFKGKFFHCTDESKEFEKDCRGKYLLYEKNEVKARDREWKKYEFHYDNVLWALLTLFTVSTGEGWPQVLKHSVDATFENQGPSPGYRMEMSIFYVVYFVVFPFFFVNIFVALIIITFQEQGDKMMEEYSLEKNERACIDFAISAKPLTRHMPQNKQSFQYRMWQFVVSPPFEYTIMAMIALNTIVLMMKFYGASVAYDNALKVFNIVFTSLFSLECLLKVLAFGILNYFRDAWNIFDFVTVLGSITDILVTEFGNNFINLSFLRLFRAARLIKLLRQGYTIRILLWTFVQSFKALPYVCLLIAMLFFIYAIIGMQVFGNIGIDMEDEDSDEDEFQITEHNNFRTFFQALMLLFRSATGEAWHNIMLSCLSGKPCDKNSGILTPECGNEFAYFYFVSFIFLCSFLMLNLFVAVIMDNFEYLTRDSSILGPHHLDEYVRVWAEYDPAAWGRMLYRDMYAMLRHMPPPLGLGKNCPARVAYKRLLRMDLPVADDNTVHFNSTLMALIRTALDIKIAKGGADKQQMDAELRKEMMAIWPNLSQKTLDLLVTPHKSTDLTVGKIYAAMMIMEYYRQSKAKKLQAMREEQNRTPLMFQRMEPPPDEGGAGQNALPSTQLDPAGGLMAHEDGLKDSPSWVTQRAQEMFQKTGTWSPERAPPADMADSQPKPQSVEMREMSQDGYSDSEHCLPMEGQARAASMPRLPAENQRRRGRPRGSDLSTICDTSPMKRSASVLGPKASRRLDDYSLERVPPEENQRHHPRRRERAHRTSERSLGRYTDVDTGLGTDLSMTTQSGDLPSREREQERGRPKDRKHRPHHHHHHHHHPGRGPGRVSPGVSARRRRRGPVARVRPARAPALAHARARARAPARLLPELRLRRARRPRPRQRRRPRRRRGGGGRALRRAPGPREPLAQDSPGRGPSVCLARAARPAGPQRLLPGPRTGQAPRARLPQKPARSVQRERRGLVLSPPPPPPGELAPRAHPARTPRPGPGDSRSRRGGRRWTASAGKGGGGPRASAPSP
T1 sequence (P13806 27-1106 partner): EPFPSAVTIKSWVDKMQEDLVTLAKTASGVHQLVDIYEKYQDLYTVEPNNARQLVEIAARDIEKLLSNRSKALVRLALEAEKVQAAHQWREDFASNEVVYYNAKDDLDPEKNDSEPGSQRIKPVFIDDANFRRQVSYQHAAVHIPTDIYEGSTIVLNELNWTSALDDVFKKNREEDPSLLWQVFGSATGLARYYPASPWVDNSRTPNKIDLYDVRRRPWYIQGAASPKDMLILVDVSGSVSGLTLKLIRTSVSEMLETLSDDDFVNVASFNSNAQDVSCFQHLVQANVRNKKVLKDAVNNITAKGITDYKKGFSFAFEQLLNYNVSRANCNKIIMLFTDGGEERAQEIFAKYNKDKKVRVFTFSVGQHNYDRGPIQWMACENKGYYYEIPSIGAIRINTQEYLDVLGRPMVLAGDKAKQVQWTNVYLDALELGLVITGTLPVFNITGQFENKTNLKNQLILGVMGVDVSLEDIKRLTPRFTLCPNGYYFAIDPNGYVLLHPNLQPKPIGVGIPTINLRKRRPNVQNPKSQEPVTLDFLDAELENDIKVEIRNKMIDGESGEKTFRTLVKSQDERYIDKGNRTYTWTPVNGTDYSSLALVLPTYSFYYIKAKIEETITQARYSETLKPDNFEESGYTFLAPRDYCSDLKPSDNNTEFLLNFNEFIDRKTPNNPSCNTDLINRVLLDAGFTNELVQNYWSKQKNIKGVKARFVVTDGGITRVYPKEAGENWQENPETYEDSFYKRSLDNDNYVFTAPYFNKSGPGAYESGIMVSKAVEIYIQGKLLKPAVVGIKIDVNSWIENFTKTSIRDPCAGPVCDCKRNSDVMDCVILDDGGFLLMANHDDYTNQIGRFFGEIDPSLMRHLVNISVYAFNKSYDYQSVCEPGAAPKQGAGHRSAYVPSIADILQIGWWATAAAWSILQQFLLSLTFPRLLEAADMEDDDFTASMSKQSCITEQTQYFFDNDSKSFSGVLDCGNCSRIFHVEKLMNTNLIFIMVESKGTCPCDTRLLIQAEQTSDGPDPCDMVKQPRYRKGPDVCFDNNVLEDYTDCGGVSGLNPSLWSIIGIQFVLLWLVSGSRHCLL
T1 sequence (P19517 whole entry partner): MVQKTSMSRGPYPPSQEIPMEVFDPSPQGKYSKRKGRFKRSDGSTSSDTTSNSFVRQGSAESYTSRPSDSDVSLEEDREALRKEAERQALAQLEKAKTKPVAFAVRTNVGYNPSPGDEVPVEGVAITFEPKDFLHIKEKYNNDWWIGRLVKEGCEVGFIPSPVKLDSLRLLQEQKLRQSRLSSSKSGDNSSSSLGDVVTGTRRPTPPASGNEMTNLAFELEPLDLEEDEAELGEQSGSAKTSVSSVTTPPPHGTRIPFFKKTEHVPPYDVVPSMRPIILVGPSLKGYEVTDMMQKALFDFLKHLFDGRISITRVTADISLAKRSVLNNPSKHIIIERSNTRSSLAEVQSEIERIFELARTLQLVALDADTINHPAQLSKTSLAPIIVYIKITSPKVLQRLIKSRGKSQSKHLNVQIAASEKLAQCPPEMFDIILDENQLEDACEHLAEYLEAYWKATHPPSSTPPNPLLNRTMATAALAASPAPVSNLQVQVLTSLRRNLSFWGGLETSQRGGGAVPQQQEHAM

CC1(C)O[C@@H]2[C@@H](CO[C@@]3(COS(N)(=O)=O)OC(C)(C)O[C@@H]23)O1 [Topiramate]
peak of L-type HVDCC (L-type HVDCC; 10 μmol/L): decreased
Seizure protecting plasma concentrations in humans [1]: 5 to 10 µg/mL
effect on JME seizures (JME seizures): seizure-suppressing; also recorded: suppress JME seizures; also recorded: seizure suppressing

O=C1NC(=O)C(c2ccccc2)(c2ccccc2)N1 [Phenytoin]
Seizure protecting plasma concentrations in humans [1]: 10 to 20 µg/mL
absences in JME (JME seizures): make absence appear for the first time
effect on JME seizures (JME seizures): can make seizures worse; also recorded: have no effects on or aggravate JME seizures

SNX-482
apoptosis induced by EFHC1 overexpression ([2]; mouse hippocampal primary culture neurons): specifically suppressed
survival rates of EFHC1-positive neurons ([2]; surviving cells 48 hours after transfection, antagonist added 3 hrs post transfection): specifically increased

NS(=O)(=O)Cc1noc2ccccc12 [Zonisamide]
N-type Ca^2+ channel activity (N type HVDCC; 500 μmol/L): enhances
HVDCC ([3]; 500 μmol/L): does not alter
T type LVDCC (T type VDCC; 500 μmol/L, cultured fetal rat cortical neurons): reduces
P-type calcium channel activity (P type HVDCC; 500 μmol/L): possibly reduces
Seizure protecting plasma concentrations in humans [1]: 15 to 40 µg/mL
effect on JME seizures (JME seizures): suppress JME seizures
effect on JME seizures (JME seizures; listed as zonizamide): seizure-suppressing; also recorded: seizure suppressing

CCC1(c2ccccc2)C(=O)NC(=O)NC1=O [Phenobarbital]
Seizure protecting plasma concentrations in humans [1]: 10 to 40 µg/mL

CN1C(=O)OC(C)(C)C1=O [trimethadione]
T type VDCC (T type VDCC; thalamic neurons): reduce
effect on JME seizures (JME seizures): no effects in JME

CCC1(C)CC(=O)NC1=O (centres unmarked) [Ethosuximide]
T type VDCC (T type VDCC; thalamic neurons): reduce
T type VDCC (T type VDCC; thalamic neurons, listed as ethozuximide): reduces
Seizure protecting plasma concentrations in humans [1]: 40 to 100 µg/mL
effect on JME seizures (JME seizures): no effects; also recorded: have no effects on or aggravate JME seizures

CC[C@@H](C(N)=O)N1CCCC1=O [Levetiracetam]
high voltage activated calcium currents ([3]; specific type not defined): depresses
T type VDCC (T type VDCC): no effects
Seizure protecting plasma concentrations in humans [1]: 5 to 45 µg/mL
effect on JME seizures (JME seizures): seizure-suppressing; also recorded: suppress JME seizures; also recorded: seizure suppressing

NC(=O)N1c2ccccc2C=Cc2ccccc21 [Carbamazepine]
Seizure protecting plasma concentrations in humans [1]: 4 to 10 µg/mL
absences in JME (JME seizures): make absence appear for the first time
effect on JME seizures (JME seizures): can make seizures worse; also recorded: have no effects on or aggravate JME seizures
effect on JME seizures (JME seizures; listed as carbamezapine): can make seizures worse

CCCC(CCC)C(=O)O [Valproate]
Seizure protecting plasma concentrations in humans [1]: 40 to 150 µg/mL

Nc1nnc(-c2cccc(Cl)c2Cl)c(N)n1 [Lamotrigine]
N type HVDCC (N type HVDCC): inhibits
L type HVDCC (L-type HVDCC): spares
P type HVDCC (P type HVDCC): inhibits
Seizure protecting plasma concentrations in humans [1]: 3 to 14 µg/mL
effect on JME seizures (JME seizures): seizure-suppressing; also recorded: suppress JME seizures; also recorded: seizure suppressing

B1: F229L: EFHC1 protein with JME missense mutation F229L (Phe229Leu) (protein)
chain: MVSNPVHGLPFLPGTSFKDSTKTAFHRSQTLSYRNGYAIVRRPTVGIGGDRLQFNQLSQAELDELASKAPVLTYGQPKQAPPADFIPAHVAFDKKVLKFDAYFQEDVPMSTEEQYRIRQVNIYYYLEDDSMSVIEPVVENSGILQGKLIKRQRLAKNDRGDHYHWKDLNRGINITIYGKTFRVVDCDQFTQVFLESQGIELNPPEKMALDPYTELRKQPLRKYVTPSDLDQLKQFLTFDKQVLRFYAIWDDTDSMYGECRTYIIHYYLMDDTVEIREVHERNDGRDPFPLLMNRQRVPKVLVENAKNFPQCVLEISDQEVLEWYTAKDFIVGKSLTILGRTFFIYDCDPFTRRYYKEKFGITDLPRIDVSKREPPPVKQELPPYNGFGLVEDSAQNCFTLIPKAPKKDVIKMLVNDNKVLRYLAVLESPIPEDKDRRFVFSYFLATDMISIFEPPVRNSGIIGGKYLGRTKVVKPYSTVDNPVYYGPSDFFIGAVIEVFGHRFIILDTDEYVLKYMESNAAQYSPEALASIQNHVRKREAPAPEAESKQTEKDPGVQELEALIDTIQKQLKDHSCKDNIREAFQIYDKEASGYVDRDMFFKICESLNVPVDDSLVKELIRMCSHGEGKINYYNFVRAFSN
Activation V0.5 (mV) (PQ type VDCC (Cav2.1)): 21.0 ± 3.4 mV
Inactivation V0.5 (mV) (PQ type VDCC (Cav2.1)): −13.7 ± 2.4 mV
inactivation speed of P/Q type VDCC (decelerating effect on calcium inactivation) (PQ type VDCC (Cav2.1); patch-clamp): abolished the decelerating effect
Activation k (mV) (PQ type VDCC (Cav2.1)): 9.25 ± 0.43 mV
Inactivation K (mV) (PQ type VDCC (Cav2.1)): 6.53 ± 0.41 mV
cell-death effect (GFP-positive surviving cell numbers) [4]: significantly reversed
R-type Ca2+ current generated by Cav2.3 (R-type VDCC (Cav2.3)): significantly suppressed

B2: D253Y: EFHC1 protein with JME missense mutation D253Y (Asp253Tyr) (protein)
chain: B1 chain with L229F, D253Y
Ca2+ current density of P/Q-type VDCC (Cav2.1) (PQ type VDCC (Cav2.1); cells co-transfected with P/Q-type VDCC and EFHC1 constructs): prominently increased
sustained component of calcium currents (PQ type VDCC (Cav2.1); compared with vector-transfected control P/Q-type-expressing cells): reduced
Activation V0.5 (mV) (PQ type VDCC (Cav2.1)): 19.7 ± 2.0 mV
Inactivation V0.5 (mV) (PQ type VDCC (Cav2.1)): −10.9 ± 1.8 mV
Activation k (mV) (PQ type VDCC (Cav2.1)): 7.60 ± 0.51 mV
Inactivation K (mV) (PQ type VDCC (Cav2.1)): 6.08 ± 0.22 mV
cell-death effect (GFP-positive surviving cell numbers) [4]: significantly reversed

— US11932908B2, “Compositions and methods for diagnosis and treatment of epilepsy” (THE REGENTS OF THE UNIVERSITY OF CALIFORNIA, priority 2004, dated 2024)
